These results are taken from US20060160865A1, “Pyridinyl carbamates” (Novo Nordisk A/S, priority 2003, published 2006).

For the experiment, the target named is T1, Hormone-sensitive lipase (HSL) (Homo sapiens, UniProt Q05469).
T1 construct: made in house
T1 sequence (Q05469 1-775 isoform Q05469-2): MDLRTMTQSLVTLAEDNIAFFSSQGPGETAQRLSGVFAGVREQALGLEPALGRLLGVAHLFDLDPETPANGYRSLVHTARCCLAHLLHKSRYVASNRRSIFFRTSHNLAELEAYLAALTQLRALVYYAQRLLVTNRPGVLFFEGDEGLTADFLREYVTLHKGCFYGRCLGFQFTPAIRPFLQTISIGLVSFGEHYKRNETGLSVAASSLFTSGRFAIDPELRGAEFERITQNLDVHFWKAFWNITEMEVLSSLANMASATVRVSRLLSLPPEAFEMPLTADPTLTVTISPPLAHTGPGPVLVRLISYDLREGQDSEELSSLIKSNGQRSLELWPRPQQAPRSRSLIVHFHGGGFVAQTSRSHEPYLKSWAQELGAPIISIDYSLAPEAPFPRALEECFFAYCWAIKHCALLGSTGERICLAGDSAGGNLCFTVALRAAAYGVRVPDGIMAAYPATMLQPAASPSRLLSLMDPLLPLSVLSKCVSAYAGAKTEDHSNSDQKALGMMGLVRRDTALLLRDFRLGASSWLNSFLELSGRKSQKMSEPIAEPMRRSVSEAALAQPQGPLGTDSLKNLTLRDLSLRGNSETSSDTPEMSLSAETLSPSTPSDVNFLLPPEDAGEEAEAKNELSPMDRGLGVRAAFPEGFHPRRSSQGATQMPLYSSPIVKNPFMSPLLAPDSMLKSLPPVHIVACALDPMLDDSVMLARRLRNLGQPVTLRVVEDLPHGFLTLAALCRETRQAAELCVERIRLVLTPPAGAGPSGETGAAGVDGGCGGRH
As to the kind of experiment: Assay 3190.1: percent inhibition of hormone sensitive lipase by compound at 10 μM (fluorochrome-labeled triacylglyceride substrate). The experiment is classed as biochemical. The following applies: 10 μM sample concentration; % activity relative to non-inhibited sample (no compound); 30 min pre-incubation at 25° C., 120 min at 37° C.; read-out: Test 3190.1 HSL_FL % ACTIVITY
The text has this:
Materials. The Hormone-sensitive lipase was provided by Dr. Cecilia Holm, from Lund University Sweden or produced and purified by Novo Nordisk (NN) using the reagents and protocols used by Dr. Holm. The substrates used are: ^3H-labeled triolein (TO) from Amersham, Buckinghamshire, U.K. cat No. TRA191; 5-20 Ci/mmol dissolved in toluene, triolein (Sigma, Cat. No. T-1740), fluorochrome-labeled triacylglyceride (cis-octadec-9-enoic acid 2-[12-(7-nitrobenzo[1,2,5]oxadiazol-4-ylamino)dodecanoyloxy]-1-cis-octadec-9-enoyloxymethyl-ethyl ester) prepared by Novo Nordisk (NN) by conventional methods, and 1,3-(di[^3H]-stearin), 2-(PEG-Biotin)glycerol prepared in collaboration with Amersham Pharmacia Biotech, UK and described in WO 01/073442. Phosphatidyl choline (PC) and phosphatidyl inositol (PI) are from Sigma (St Luis Mo. cat. Nos. P-3556 and P-5954 respectively). All other reagents are of commercial grade and obtained from various commercial sources.
3190.1: Assay for determination of percent inhibition of hormone sensitive lipase by compound at 10 μM sample concentration.
A lipid emulsion with fluorochrome-labeled triacylglyceride and phospholipid is used as substrate with a standard concentration of highly purified HSL (12 μg/mL initial concentration corresponding to 600 ng/mL final concentration). BSA is added as product acceptor. The transfer of the fluorochrome from the lipid phase to the water (BSA) phase changes the fluorescent properties of the fluorochrome. The changes can be monitored on a fluorimeter with an excitation wavelength of 450 nm and an emission wavelength of 545 nm.
Compound and HSL (20 μL compound, 10 μL enzyme and 70 μL PED-BSA buffer) is pre-incubated for 30 min at 25° C. before addition of substrate (100 μL). Amount of formed product is measured after 120 min incubation at 37° C.
Results are given as percent activity relative to a non-inhibited sample (no compound). 3190.2: Assay for determination of IC50 value for the inhibition of hormone sensitive lipase by compound. Standard concentrations of compound are 100 μM and 5-fold dilutions (initial concentration corresponding to 10 μM final concentration and 5-fold).

Molecules are shown by their SMILES.

Regarding `CN(C(=O)Oc1ccc(CCN2C(=O)CC(C)(C)CC2=O)cn1)c1ccccc1` [Example 1, Methyl-phenyl-carbamic acid 5-[2-(4,4-dimethyl-2,6-dioxo-piperidin-1-yl)-ethyl]-pyridin-2-yl ester], the activity at 10 µM was determined as 0%. As for `CN(C(=O)Oc1ccc(NCC(=O)OC(C)(C)C)cn1)c1ccccc1` [Example 2, [6-(Methyl-phenyl-carbamoyloxy)-pyridin-3-ylamino]-acetic acid tert-butyl ester], the activity at 10 µM was 1%. For `CN(C(=O)Oc1ccc(N2C(=O)CNC2=S)cn1)c1ccccc1` [Example 5, Methyl-phenyl-carbamic acid 5-(5-oxo-2-thioxo-imidazolidin-1-yl)-pyridin-2-yl ester], the activity at 10 µM came to 9%. `CCC1NC(=S)N(c2ccc(OC(=O)N(C)c3ccccc3)nc2)C1=O` (stereo not drawn) [Example 8, Methyl-phenyl-carbamic acid 5-(4-ethyl-5-oxo-2-thioxo-imidazolidin-1-yl)-pyridin-2-yl ester]: the activity at 10 µM amounted to 3%.

As for `CN(C(=O)Oc1ccc(NC(=S)NCC(C)(C)C)cn1)c1ccccc1` [Example 12, Methyl-phenyl-carbamic acid 5-[3-(2,2-dimethyl-propyl)-thioureido]-pyridin-2-yl ester], the activity at 10 µM came to 2%. In the case of `CCCCNC(=S)Nc1ccc(OC(=O)N(C)c2ccccc2)nc1` [Example 16, Methyl-phenyl-carbamic acid 5-(3-butyl-thioureido)-pyridin-2-yl ester], the activity at 10 µM turned out to be 1%. Turning to `COc1cccc(C(=O)Nc2ccc(OC(=O)N(C)c3ccccc3)nc2)c1` [Example 21, Methyl-phenyl-carbamic acid 5-(3-methoxy-benzoylamino)-pyridin-2-yl ester], the activity at 10 µM was 1%. Regarding `CN(C(=O)Oc1ccc(NC(=O)c2cccc(C(F)(F)F)c2F)cn1)c1ccccc1` [Example 28, Methyl-phenyl-carbamic acid 5-(2-fluoro-3-trifluoromethyl-benzoylamino)-pyridin-2-yl ester], the activity at 10 µM came to 1%. For the compound `CN(C)c1cccc(C(=O)Nc2ccc(OC(=O)N(C)c3ccccc3)nc2)c1` [Example 31, Methyl-phenyl-carbamic acid 5-(3-dimethylamino-benzoylamino)-pyridin-2-yl ester], the activity at 10 µM stood at 3%.

`COc1ccccc1N(C)C(=O)Oc1ccc(N2C(=O)CC(C)(C)CC2=O)cn1` [Example 32, (2-Methoxy-phenyl)-methyl-carbamic acid 4,4-dimethyl-2,6-dioxo-3,4,5,6-tetrahydro-2H-[1,3′]bipyridinyl-6′-yl ester]: the activity at 10 µM turned out to be 6%. In the case of `CN(C(=O)Oc1ccc(NC(=O)NC(C)(C)C)cn1)c1ccccc1` [Example 35, Methyl-phenyl-carbamic acid 5-(3-tert-butyl-ureido)-pyridin-2-yl ester], the activity at 10 µM came out at 8%. Next, `CC1CCN(Cc2ccc(C(=O)Nc3ccc(OC(=O)N(C)c4ccccc4)nc3)cc2)CC1` [Example 41, Methyl-phenyl-carbamic acid 5-[4-(4-methyl-piperidin-1-ylmethyl)-benzoylamino]-pyridin-2-yl ester]: 3%; `CC1CCCCN1Cc1ccc(C(=O)Nc2ccc(OC(=O)N(C)c3ccccc3)nc2)cc1` (stereo not drawn) [Example 43, Methyl-phenyl-carbamic acid 5-[4-(2-methyl-piperidin-1-ylmethyl)-benzoylamino]-pyridin-2-yl ester]: 7%; `CN(C(=O)Oc1ccc(NC(=O)c2ccc(CN3CCCC3)cc2)cn1)c1ccccc1` [Example 47, Methyl-phenyl-carbamic acid 5-(4-pyrrolidin-1-ylmethyl-benzoylamino)-pyridin-2-yl ester]: 7%.

As to `C[C@@H]1CN(Cc2ccc(C(=O)Nc3ccc(OC(=O)N(C)c4ccccc4)nc3)cc2)C[C@H](C)O1` [Example 52, cis-Methyl-phenyl-carbamic acid 5-[4-(2,6-dimethyl-morpholin-4-ylmethyl)-benzoylamino]-pyridin-2-yl ester], the activity at 10 µM worked out at 4%. Next, `CN(C(=O)Oc1ccc(NC(=O)c2ccc(-n3ccnc3)cc2)cn1)c1ccccc1` [Example 57, Methyl-phenyl-carbamic acid 5-(4-imidazol-1-yl-benzoylamino)-pyridin-2-yl ester]: 17%. On to `CCN(CC)c1ccc(C(=O)Nc2ccc(OC(=O)N(C)c3ccccc3)nc2)cc1` [Example 58, Methyl-phenyl-carbamic acid 5-(4-diethylamino-benzoylamino)-pyridin-2-yl ester], for which the activity at 10 µM is 11%. `CC1CCN(C(=S)Nc2ccc(OC(=O)N(C)c3ccccc3)nc2)CC1` [Example 63, Methyl-phenyl-carbamic acid 5-[(4-methyl-piperidine-1-carbothioyl)-amino]-pyridin-2-yl ester]: the activity at 10 µM was 2%. `CN(C(=O)Oc1ccc(N2C(=O)CC(C)(C)CC2=O)cn1)c1ccc(Br)cc1` [Example 65, (4-Bromo-phenyl)-methyl-carbamic acid 4,4-dimethyl-2,6-dioxo-3,4,5,6-tetrahydro-2H-[1,3′]bipyridinyl-6′-yl ester]: the activity at 10 µM is 0%. `COc1ccc(N(C)C(=O)Oc2ccc(N3C(=O)CC(C)(C)CC3=O)cn2)cc1` [Example 72, (4-Methoxy-phenyl)-methyl-carbamic acid 4,4-dimethyl-2,6-dioxo-3,4,5,6-tetrahydro-2H-[1,3′]bipyridinyl-6′-yl ester]: the activity at 10 µM is 2%. For `CN(C(=O)Oc1ccc(N2C(=O)CC(C)(C)CC2=O)cn1)c1ccc(CCO)cc1` [Example 77, [4-(2-Hydroxy-ethyl)-phenyl]-methyl-carbamic acid 4,4-dimethyl-2,6-dioxo-3,4,5,6-tetrahydro-2H-[1,3′]bipyridinyl-6′-yl ester], the activity at 10 µM stood at 12%.
